The record followed here is patent US20240382484A1, “COMPOSITION FOR TREATING, PREVENTING, OR AMELIORATING MELANOMA AND METHOD THEREOF” (Thomas Jefferson University, priority 2021, published 2024).

What all share (assay type): cell-based, human
Test [1] concerns WM1361A, WM1366, SK-MEL-30 or SK-MEL-173 cells. The test can be described thus: 7-day cell growth monitored by IncuCyte. The conditions noted are these: 7-day treatment course.
Protocol: FIG. 2A: NRAS mutant melanoma cell line WM1361A, WM1366, SK-MEL-30, SK-MEL-173, 1007 and 1014 were treated for 72 hours as indicated with GSK2334470 and trametinib and analyzed for cell density by IncuCyte. Synergy graphs were generated utilizing Combenefit Software with Loewe method. Data are represented as the mean from three biological independent experiments. FIG. 2B: WM1361A, WM1366, SK-MEL-30 or SK-MEL-173 cells were treated with GSK2334470 (PDPK1i) and trametinib (tram) alone or in combination (comb) at the indicated concentrations for 7 days. Cell growth was monitored by IncuCyte every 2 hours. Media were replaced twice with drugs during culture. Data are represented as the mean±SEM of three biological independent experiments. p values were calculated with an unpaired two-tailed t test. n.s., not significant.
FIG. 11A: WM1361A, WM1366, SK-MEL-30 and SK-MEL-173 cells were treated for 72 hours as indicated with GSK2334470 and PD0325901 and analyzed for cell density by IncuCyte. […] Cell growth was monitored by IncuCyte every 2 hours. Data are represented as the mean±SEM of three biological independent experiments. p values were calculated with an unpaired two-tailed t test. n.s., not significant.
For cell proliferation and drug response, cells were monitored by IncuCyte® (Essen Bioscience, Ann Arbor, MI) every 2 hours.
For test [2], the system named is SK-MEL-30 and SK-MEL-173 PDPK1-knockdown cells. The test can be described thus: Cellular growth of siRNA PDPK1-knockdown cells in response to MEKi. The note with it: SK-MEL-30 and SK-MEL-173, 3 days, siPDPK1 vs siCtrl. How it is done: FIGS. 3A-3B: PDPK1 depletion by two individual sgRNAs in WM1361A (FIG. 3A) or WM1366 (FIG. 3B) cells were analyzed by immunoblot. FIGS. 3C-3D, Cell growth of WM1361A (FIG. 3C) or WM1366 (FIG. 3D) parental clones (Cas9) and PDPK1-depleted clones by two individual sgRNAs (KO1 and KO2) treated with vehicle (DMSO) or trametinib (Tram) was monitored by IncuCyte every 2 hours. Media were replaced twice with fresh drugs during culture. Data are represented as the mean±SEM of three biological independent experiments. p values were calculated with an unpaired two-tailed t test. n.s., not significant. FIGS. 3E-3F, Cellular growth in response to trametinib at the indicated doses for 5 days in WM1361A (FIG. 3E) or WM1366 (FIG. 3F) parental clone (iCas9) and PDPK1-depleted clones (KO1 and K02). Media were replaced once with drugs during culture. […] FIGS. 3G-3J, PDPK1 knockdown by ON-target control siRNAs and two individual siRNAs in SK-MEL-30 (FIG. 3G) or SK-MEL-173 cells (FIG. 3I) was analyzed by immunoblot. […]
FIG. 12A-12B: Cell growth of WM1361A (FIG. 12A) or WM1366 (FIG. 12B) parental clone (Cas9) and PDPK1-depleted clones (KO1 and K02) treated with vehicle (DMSO) or PD0325901 (PD) was monitored by IncuCyte every 2 hours. […] Data are represented as the mean±SEM of three biological independent experiment. p values were calculated with an unpaired two-tailed t test. n.s., not significant. […]

In test [3] the test system is WM1361A and WM1366 PDPK1-depleted clones. Description: Cell growth of PDPK1-depleted (sgRNA knockout) clones in response to MEKi. The note with it: for decrease of the half-maximum inhibitory concentration by PDPK1 depletion: WM1361A and WM1366, 5 days, PDPK1-depleted clones vs parental clone; for cell proliferation, MEKi combined with PDPK1 depletion: WM1361A and WM1366 KO1 and KO2 clones. Here is the method: FIGS. 3A-3B: PDPK1 depletion by two individual sgRNAs in WM1361A (FIG. 3A) or WM1366 (FIG. 3B) cells were analyzed by immunoblot. FIGS. 3C-3D, Cell growth of WM1361A (FIG. 3C) or WM1366 (FIG. 3D) parental clones (Cas9) and PDPK1-depleted clones by two individual sgRNAs (KO1 and KO2) treated with vehicle (DMSO) or trametinib (Tram) was monitored by IncuCyte every 2 hours. Media were replaced twice with fresh drugs during culture. Data are represented as the mean±SEM of three biological independent experiments. p values were calculated with an unpaired two-tailed t test. n.s., not significant. FIGS. 3E-3F, Cellular growth in response to trametinib at the indicated doses for 5 days in WM1361A (FIG. 3E) or WM1366 (FIG. 3F) parental clone (iCas9) and PDPK1-depleted clones (KO1 and K02). Media were replaced once with drugs during culture. Data are represented as dots of three biological independent experiments. FIGS. 3G-3J, PDPK1 knockdown by ON-target control siRNAs and two individual siRNAs in SK-MEL-30 (FIG. 3G) or SK-MEL-173 cells (FIG. 3I) was analyzed by immunoblot. Cellular growth in response to trametinib at the indicated doses for 3 days in SK-MEL-30 (FIG. 3H) or SK-MEL-173 (FIG. 3J) control cells (siCtrl) and PDPK1-knockdown cells (siPDPK1s). Data are represented as dots of at least three biological independent experiments.
FIG. 12A-12B: Cell growth of WM1361A (FIG. 12A) or WM1366 (FIG. 12B) parental clone (Cas9) and PDPK1-depleted clones (KO1 and K02) treated with vehicle (DMSO) or PD0325901 (PD) was monitored by IncuCyte every 2 hours. Media were replaced twice with drugs during culture. Data are represented as the mean±SEM of three biological independent experiment. p values were calculated with an unpaired two-tailed t test. n.s., not significant. FIGS. 12C-12D, Cellular growth in response to PD0325901 at the indicated doses for 5 days in WM1361A (FIG. 12C) or WM1366 (FIG. 12D) parental clone (iCas9) and PDPK1-depleted clones (KO1 and K02). Media were replaced once with drugs during culture. Data are represented as dots of three biological independent experiments. FIG. 12E-12F, Cellular growth in response to PD0325901 at the indicated doses for 3 days in SK-MEL-30 (FIG. 12E) or SK-MEL-173 (FIG. 12F) control cells (siCtrl) and PDPK1-knockdown cells (siPDPK1s). Data are represented as dots of at least three biological independent experiments.
To test whether the synergistic effects of GSK2334470 was PDPK1-dependent, the present study generated PDPK1 knockout clones using high gene-editing efficiency clones of WM1361A and WM1366 cells. Depletion of PDPK1 by two different sgRNAs in both cell lines (FIGS. 3A-3B) attenuated cellular proliferation (FIGS. 3C-3D). […]

For the molecule `CC(=O)Nc1cccc(-n2c(=O)n(C3CC3)c(=O)c3c(Nc4ccc(I)cc4F)n(C)c(=O)c(C)c32)c1` [trametinib, N-(3-(3-cyclopropyl-5-((2-fluoro-4-iodophenyl)amino)-6,8-dimethyl-2,4,7-trioxo-3,4,6,7-tetrahydropyrido[4,3-d]pyrimidin-1(2H)-yl)phenyl)acetamide], the “cell proliferation, MEKi combined with PDPK1i (GSK2334470)” value in test [1] is listed as “profoundly inhibited”. In test [2], the “half-maximum inhibitory concentration upon PDPK1 knockdown” value is listed as “decreased”. Also, in test [3], the “decrease of the half-maximum inhibitory concentration by PDPK1 depletion” value is “approximately 4 fold” and the “cell proliferation, MEKi combined with PDPK1 depletion” value is listed as “effectively inhibited”.
For `O=C(NOC[C@H](O)CO)c1ccc(F)c(F)c1Nc1ccc(I)cc1F` [PD0325901, (R)—N-(2,3-dihydroxypropoxy)-3,4-difluoro-2-((2-fluoro-4-iodophenyl)amino)benzamide], in test [1], the “cell proliferation, MEKi combined with PDPK1i (GSK2334470)” value was “profoundly inhibited”. In addition, the “half-maximum inhibitory concentration upon PDPK1 knockdown” value in test [2] is given as “decreased”. Also, in test [3], the “decrease of the half-maximum inhibitory concentration by PDPK1 depletion” value is “approximately 4 fold” and the “cell proliferation, MEKi combined with PDPK1 depletion” value was “effectively inhibited”.
